Where no end group is shown, it is not given here.
System: serum fucosylated PSA
Experiment: Sandwich ELISA, anti-PSA antibody and biotin-labeled lectin
Format: binding, human
Conditions: for Δ (=A − B): reaction value of Prostate cancer 4 minus Healthy 1; for lectin reaction value B of Healthy 1: serum of Healthy 1; for lectin reaction value A of Prostate cancer 4: serum of Prostate cancer 4, GS 6 (3 + 3)
How it was run: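 De-glycosylated anti-PSA antibody (5 μg/mL) captured PSA from 2-fold diluted serum, detected with biotin-PhoSL (0.1 μg/mL, 4° C, 30 min) in 0.1% BSA/diluted PBS+glycine-NaOH pH 9.6 or PBS pH 7.4, then HRP-streptavidin/TMB at Ab450-630. Values in U/mL from fucosylated PSA calibration, 10 ng/mL defined as 10 U/mL; AAL substituted for comparison.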

[1] = subject samples A, 7 healthy persons, pH 9.6
[2] = subject samples A, 9 patients, pH 9.6
[3] = subject samples B, n 9, high blood PSA but no cancer in biopsy, pH 9.6
[4] = subject samples B, n 11, pH 9.6

PhoSL: fucose α1→6 specific lectin that can be extracted from Pholiota squarrosa, SEQ ID No. 1 (APVPVTKLVCDGDTYKCTAYLDFGDGRWVAQWDTNVFHTG; not fully specified; ends and bridges not checked)
Δ (=A − B) (pH in lectin reaction 7.4): 72.6 U/mL | Δ (=A − B) (pH in lectin reaction 9.6): 126.9 U/mL | lectin reaction value B of Healthy 1 (pH in lectin reaction 7.4): 35.8 U/mL | lectin reaction value B of Healthy 1 (pH in lectin reaction 9.6): 51.9 U/mL | lectin reaction value of Healthy 2 (serum of Healthy 2, pH in lectin reaction 9.6): 55.9 U/mL | lectin reaction value of Healthy 3 (serum of Healthy 3, pH in lectin reaction 9.6): 63.9 U/mL | lectin reaction value of Healthy 4 (serum of Healthy 4, pH in lectin reaction 9.6): 74.9 U/mL | lectin reaction value of Healthy 5 (serum of Healthy 5, pH in lectin reaction 9.6): 55.8 U/mL | lectin reaction value of Healthy 6 (serum of Healthy 6, pH in lectin reaction 9.6): 39.7 U/mL | lectin reaction value of Healthy 7 (serum of Healthy 7, pH in lectin reaction 9.6): 59.0 U/mL | lectin reaction value of Prostate cancer 1 (serum of Prostate cancer 1, GS 4 (2 + 2), pH in lectin reaction 9.6): 115.8 U/mL | lectin reaction value of Prostate cancer 2 (serum of Prostate cancer 2, GS 5 (2 + 3), pH in lectin reaction 9.6): 116.7 U/mL | lectin reaction value of Prostate cancer 3 (serum of Prostate cancer 3, GS 6 (3 + 3), pH in lectin reaction 9.6): 104.5 U/mL | lectin reaction value A of Prostate cancer 4 (pH in lectin reaction 7.4): 108.4 U/mL | lectin reaction value A of Prostate cancer 4 (pH in lectin reaction 9.6): 178.8 U/mL | lectin reaction value of Prostate cancer 5 (serum of Prostate cancer 5, GS 7 (3 + 4), pH in lectin reaction 9.6): 115.8 U/mL | lectin reaction value of Prostate cancer 6 (serum of Prostate cancer 6, GS 7 (3 + 4), pH in lectin reaction 9.6): 167.5 U/mL | lectin reaction value of Prostate cancer 7 (serum of Prostate cancer 7, GS 8 (3 + 5), pH in lectin reaction 9.6): 125.6 U/mL | lectin reaction value of Prostate cancer 8 (serum of Prostate cancer 8, GS 8 (4 + 4), pH in lectin reaction 9.6): 129.8 U/mL | lectin reaction value of Prostate cancer 9 (serum of Prostate cancer 9, GS 8 (4 + 4), pH in lectin reaction 9.6): 251.4 U/mL | reaction value, Healthy person group, Average value [1]: 57.3 U/mL | reaction value, Healthy person group, Median value [1]: 55.9 U/mL | reaction value, Prostate cancer patient group, Average value [2]: 145.1 U/mL | reaction value, Prostate cancer patient group, Median value [2]: 125.6 U/mL | reaction value, GS6, Mean value (subject samples A, n 2, pH 9.6): 141.7 U/mL | reaction value, GS6, Median value (subject samples A, n 2, pH 9.6): 141.7 U/mL | reaction value, GS7, Mean value (subject samples A, n 2, pH 9.6): 141.7 U/mL | reaction value, GS7, Median value (subject samples A, n 2, pH 9.6): 141.7 U/mL | reaction value, Negative (GS5 or less), Mean value (subject samples A, n 2, pH 9.6): 116.3 U/mL | reaction value, Negative (GS5 or less), Median value (subject samples A, n 2, pH 9.6): 116.3 U/mL | reaction value, GS8 or more, Mean value (subject samples A, n 3, pH 9.6): 129.8 U/mL | reaction value, GS8 or more, Median value (subject samples A, n 3, pH 9.6): 168.9 U/mL | reaction value, GS8-9, Mean value (subject samples B, n 6, pH 9.6): 232.9 U/mL | reaction value, GS8-9, Median value (subject samples B, n 6, pH 9.6): 239.8 U/mL | reaction value, Negative, Mean value [3]: 203.8 U/mL | reaction value, Negative, Median value [3]: 178.0 U/mL | reaction value, GS6, Mean value (subject samples B, n 9, pH 9.6): 181.7 U/mL | reaction value, GS6, Median value (subject samples B, n 9, pH 9.6): 188.9 U/mL | reaction value, GS7, Mean value [4]: 119.5 U/mL | reaction value, GS7, Median value [4]: 210.6 U/mL

Reference: US20200264182A1, “METHOD FOR DETECTING PROSTATE CANCER” (J-OIL MILLS, INC., priority 2017, published 2020)
